Assay type in all cases: cell-based
Series [1] in a line: Cytotoxicity of SBA, trypan blue dye-exclusion, A3.01 cells. Particulars: human, read-out: Rate of survival of the cells (%). From the text: (§1) It is known that stimulation of HIV gene by TPA and tumor necrosis factor (TNF) can activate the HIV gene which is latent as the HIV-provirus within the T-cells as infected with HIV and said stimulation can thus strongly induce the progresses of sprouting and release of the viral particles of HIV. It is considered that said activation of the HIV gene for the occurrence or developement of HIV virus would be caused by such an oxidation stress which is brought about within the host cells by any stimulation given from outside the host cells as above-mentioned. Further, such discoveries and observations have been reported that NFkB, which is a nuclear factor wthin the cells, can play important part in the proliferation of HIV virus, and that the oxidation-reduction status of the NFkB is important for the activation of this factor NFkB, and so on. […] (a) Test of examining cytotoxicity of SBA against various kinds of T-cells A3.01 cells (HAT-susceptible CEM cell strain), A3.01 cells as infected with HIV, and the above-mentioned U1 cells were cultivated, respectively, in an improved RPM1-1640 media containing SBA added at different concentrations. After the cultivation, the number of the cells under test which still survived was determined under a polarizing microscope by a trypan blue dye-exclusion method.

Series [2] can be described thus: Cytotoxicity of SBA, trypan blue dye-exclusion, U1 cells. The conditions noted are these: human, read-out: Rate of survival of the cells (%).
Excerpt: as §1

The subject of a further series is HIVBRU. The series is described as follows: Formation of giant cells from HIV-infected Molt-4 cells (mixed cultivation, microscopic observation). The conditions noted are these: mixed cultivation of HIV-infected and HIV-non-infected Molt-4 cells; 20 hours of the cultivation; read-out: concentration of SBA that can inhibit the formation of the giant cells. The method, then:
In the tests above, the replication of the viral particles of HIV was examined in terms of the amount of the p24 antigen protein produced and appearing in the culture supernatant from the cultivated cells. Thus, the amount of the p24 antigen produced was measured periodically over 6 days after the A3.01 cells were infested with HIV. It was then observed that in the absence of SBA, the replication of the viral particles of HIV was induced in the A3.01 cells by stimulation with 10 units/ml of TNF-α added. […] Thus, the effective amount of SBA has the activity to inhibit the replication of the viral particles of HIV within the cells to an extent as same as AZT, and from this it is expected that SBA is useful similarly to AZT for the therapeutic treatments of AIDS. (d) Tests for evaluating an inhibitory activity of SBA to the formation of giant cells from HIV-infected Molt-4 cells In a similar manner to that in the above Test (c), Molt-4 cells (a CD4-positive human T-cell strain) were infected with AIDS virus, HIVBRU. Thereafter, The HIV-infected Molt-4 cells were mixed with such Molt-4 cells which had no HIV-infection. And the mixture of these cells were cultivated at a high density of the mixed cells in the above-mentioned improved RPM1-1640 medium containing SBA at its different concentrations. […]

The text below walks through data of EP0765662A1, “HIV GROWTH INHIBITORY COMPOSITION” (Kochi, Mutsuyuki, priority 1994, dated 1995).

Where a name gives a salt, the structure may show the parent alone.

For `O=C1O[C@H]([C@@H]2COC(c3ccccc3)O2)C(O)=C1O` (stereo partly drawn) [SBA, 5,6-O-benzylidene-L-ascorbic acid mono-sodium salt], the viability in series [1] (SBA 100 µg/ml) was 97%; in series [1] (SBA 1000 µg/ml) it was about 70%; in series [2] (SBA 100 µg/ml) it was 90%; in series [2] (SBA 500 µg/ml) it was 100%; in series [2] (SBA 800 µg/ml), 83%; in series [2] (SBA 1000 µg/ml), 92%. The minimal effective concentration in the series with HIVBRU is at least 10 µg/mL.
